This is an account of results in patent publication US20240059693A1, “FUSED BICYCLIC PYRAZOLE DERIVATIVES AND METHODS OF USE THEREOF FOR THE TREATMENT OF HERPESVIRUSES” (Merck Sharp & Dohme LLC, priority 2020, published 2024).

The target in assay [1] is T1, varicella zoster virus DNA polymerase (Varicella-zoster virus, UniProt P09252).
T1 construct: made in house; host or cells: SF21 insect cells (baculovirus vector)
Put plainly: VZV polymerase assay (AlphaLISA). It is filed as biochemical. Particulars: VZV DNA polymerase 0.4 nM, 60 minutes at 37° C. In short, it runs like this: (§1)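 Baculovirus/SF21-expressed polymerase (HCMV 0.2 nM; VZV 0.4 nM) pre-incubated 30 min at room temperature with compound in HEPES pH 7.5 buffer, then 60 min at 37 °C with 1.6 nM DIG-primer/template, sub-nM to 24 nM dNTPs and 0.8 nM biotin-dUTP. AlphaLISA detection; IC50 from 4-parameter fit.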
(In general: In Alpha technology, singlet oxygen from a donor bead excites a nearby acceptor bead.)

Assay [2] relates to HSV-1 Strain F. Put plainly: Viral qPCR assay, HSV-1 in MRC5 cells. It is filed as cell-based, Herpes Simplex Virus type 1. Particulars: read-out: HSV1 MRC5 Cell (EC50). In outline: (§2)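 EC50 from a 4-parameter fit of viral genome copies, quantified by TaqMan qPCR on proteinase K lysates against a plasmid standard, with or without PPIA normalization. Infected cells (VZV 0.04-0.1 pfu/cell in MeWo/MRC5; HSV-1 0.0005-0.004 pfu/cell in Vero/MRC5) were exposed to 10-point 3-fold dilutions for ~72 h at 37 °C.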

A further assay concerns HCMV Strain AD169. The assay is described as follows: Viral qPCR assay, HCMV in MRC-5 cells. Particulars: read-out: CMV MRC5 Cell (EC50). It is filed as cell-based, Human cytomegalovirus. In outline: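 Viral genome copies, quantified by TaqMan qPCR with a plasmid standard curve after ~72 h infection of MRC-5 cells with AD169 at 0.05-0.1 pfu/cell, served as readout; PPIA normalisation used in one format. Compounds run as 10-point 3-fold series, in standard or 50% FBS media; EC50 by 4-parameter fit.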
For orientation: In qPCR the cycle at which signal appears reflects the starting amount.

In assay [3] the test system is HSV2. Put plainly: Viral qPCR assay, HSV2 in Vero cells. It is filed as cell-based, Herpes Simplex Virus type 2. To be noted: read-out: HSV2 VERO Cell (EC50). In outline: (§3)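 EC50 from a 4-parameter fit of % effect on HSV2 genome copies, quantified by qPCR from a plasmid standard curve and normalized to infected DMSO and uninfected controls, with PPIA correction in one version. Virus-mixed Vero or MRC5 cells met 10-point 3-fold serial compound dilutions for ~72 h at 37 °C.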

The test system of assay [4] is HSV-1 Strain F. The assay is described as follows: Viral qPCR assay, HSV-1 in Vero cells. It is filed as cell-based, Herpes Simplex Virus type 1. Particulars: read-out: HSV1 VERO Cell (EC50). In short, it runs like this:
as §2

For assay [5], the system named is VZV. The assay is described as follows: Viral qPCR assay, VZV in MeWo cells. It is filed as cell-based, varicella zoster virus. Particulars: read-out: VZV MEWO Cell (IC50). On the procedure: (§4) MRCS cells, Vero cells, and MeWo cells were obtained from ATCC and were maintained at 37° C./5% CO2/90% relative humidity in Minimal Essential Medium with 10% fetal bovine serum, […] L-glutamine, 100 units/ml penicillin and 100 ug/ml streptomycin. Assay plates were prepared by dispensing compounds dissolved in DMSO into wells of 384 well collagen-coated plates using an ECHO acoustic dispenser. Each compound was tested in a 10-point, serial 3-fold dilution. Controls included uninfected cells and infected cells treated only with DMSO. Assays were initiated by mixing selected cells, in suspension, with virus, and dispensing 50 μl/well infected cells to pre-plated compounds. Plates were incubated at 37° C./5% CO2/90% relative humidity for ˜72 hrs to permit genomic replication, and infected cells were lysed by the addition of an equal volume of lysis buffer (10 mM Tris-HCl, pH8, 50 mM KCl, 2 mM MgCl2, 0.45% NP-40, 0.45% Tween-20, and 100 μg/ml proteinase K). An aliquot of the lysate was transferred to a 384-well PCR plate and incubated at 56° C. for 1 hour and then at 95° C. for 10 min. Levels of a viral gene and of the cellular control, PPIA (Thermo Fisher Assay ID=Hs04194521_s1), were measured in separate 10 μL qPCR assays using TaqMan® Gene Expression Master Mix (Applied Biosystems), and an 7900HT Fast Real-Time PCR System with 384-Well Block Module. 7-point, serial 10-fold dilutions of a plasmid standard were run on each plate to generate a standard curve, and genome copies numbers were calculated by plotting experimental Ct onto linear regression of the standard curve. Viral genome copy numbers were normalized by cellular control copy number, and compound effects were normalized to the window defined by the controls. Calculated % effects were fit using a 4-parameter algorithm, and EC50 was reported.
as §4, with “gene” for “gene and of the cellular control, PPIA (Thermo Fisher Assay ID=Hs04194521_s1),”, “in” for “in separate”, “Compound effects on viral” for “Viral”, “number” for “numbers were normalized by cellular control copy number, and compound effects”
VZV: Strain Street was maintained as an infected cell stock in MRC-5 cells. It was assayed in MeWo or MRCS cells and was used at 0.04-0.1 pfu/cell. The assays were performed in growth medium. Primer-probe set was Thermo Fisher Assay ID=AIPAEXQ. HSV-1: Strain F Street was assayed in Vero or MRCS cells and was used at 0.0005-0.004 pfu/cell in growth medium. Primer-probe set was Thermo Fisher Assay ID=AIBJZIB

Assay [6] deals with T2, Human cytomegalovirus DNA polymerase (Human cytomegalovirus, UniProt P08546).
T2 construct: made in house; host or cells: SF21 insect cells (baculovirus vector)
T2 sequence (P08546 whole entry): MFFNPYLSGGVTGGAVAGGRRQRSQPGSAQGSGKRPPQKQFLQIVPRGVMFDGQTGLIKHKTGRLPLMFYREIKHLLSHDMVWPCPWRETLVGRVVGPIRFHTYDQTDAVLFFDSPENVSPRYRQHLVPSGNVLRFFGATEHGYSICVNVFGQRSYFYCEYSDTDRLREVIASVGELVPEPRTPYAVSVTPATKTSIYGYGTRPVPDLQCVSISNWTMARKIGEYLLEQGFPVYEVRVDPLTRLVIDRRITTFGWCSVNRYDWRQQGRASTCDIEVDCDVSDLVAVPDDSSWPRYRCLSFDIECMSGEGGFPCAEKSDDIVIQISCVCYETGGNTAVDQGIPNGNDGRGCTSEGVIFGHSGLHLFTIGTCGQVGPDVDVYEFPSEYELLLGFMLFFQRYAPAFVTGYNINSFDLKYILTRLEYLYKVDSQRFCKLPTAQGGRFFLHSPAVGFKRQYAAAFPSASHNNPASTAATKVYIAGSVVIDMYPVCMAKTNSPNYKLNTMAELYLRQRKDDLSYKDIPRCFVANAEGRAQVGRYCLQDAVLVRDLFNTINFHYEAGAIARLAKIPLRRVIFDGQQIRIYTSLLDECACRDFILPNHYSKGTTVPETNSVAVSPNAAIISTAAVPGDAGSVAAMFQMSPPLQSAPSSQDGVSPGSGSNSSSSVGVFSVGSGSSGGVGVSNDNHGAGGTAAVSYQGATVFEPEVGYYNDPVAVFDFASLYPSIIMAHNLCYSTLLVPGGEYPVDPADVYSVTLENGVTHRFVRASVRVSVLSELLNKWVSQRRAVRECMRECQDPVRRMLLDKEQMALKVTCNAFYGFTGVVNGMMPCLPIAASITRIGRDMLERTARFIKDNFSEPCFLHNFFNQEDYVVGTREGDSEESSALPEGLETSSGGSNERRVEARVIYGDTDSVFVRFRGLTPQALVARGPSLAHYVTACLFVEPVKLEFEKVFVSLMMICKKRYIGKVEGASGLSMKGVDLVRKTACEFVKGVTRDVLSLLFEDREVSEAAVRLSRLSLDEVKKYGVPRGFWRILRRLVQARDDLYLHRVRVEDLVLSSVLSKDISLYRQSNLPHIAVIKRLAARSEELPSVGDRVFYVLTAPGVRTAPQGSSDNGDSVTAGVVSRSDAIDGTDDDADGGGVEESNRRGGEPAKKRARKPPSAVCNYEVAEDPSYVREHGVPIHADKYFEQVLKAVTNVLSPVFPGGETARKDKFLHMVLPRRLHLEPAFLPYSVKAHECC
Put plainly: HCMV polymerase assay (AlphaLISA). It is filed as biochemical. Particulars: HCMV DNA polymerase 0.2 nM, 60 minutes at 37° C.; read-out: CMV (IC50). In short, it runs like this: as §1

Assay [7] has as its system HSV2. The assay is described as follows: Viral qPCR assay, HSV2 in MRC5 cells. The assay is classed as cell-based, Herpes Simplex Virus type 2. To be noted: read-out: HSV2 MRC5 Cell (EC50). In short, it runs like this: as §3
Assay [8] deals with VZV. Put plainly: Viral qPCR assay, VZV in MRC5 cells. It is filed as cell-based, varicella zoster virus. Particulars: read-out: VZV MRC5 Cell (IC50). In outline:
as §2

The mark [9] stands for this setting: Human alphaherpesvirus 1, MRC5, 72 h.
[10] abbreviates: Human betaherpesvirus 5, AD169, MRC5, 72 h.
[11] abbreviates: Human alphaherpesvirus 2, Vero, 72 h.
[12] abbreviates: Human alphaherpesvirus 1, Vero, 72 h.
[13] abbreviates: Human alphaherpesvirus 3, ~72 hrs.
Setting [14] is: Human alphaherpesvirus 2, MRC5, 72 h.
Setting [15] is: Human alphaherpesvirus 3, MRC5, 72 h.

Like-named read-outs stand apart in the source and are kept apart here.

T1 sequence (P09252 whole entry): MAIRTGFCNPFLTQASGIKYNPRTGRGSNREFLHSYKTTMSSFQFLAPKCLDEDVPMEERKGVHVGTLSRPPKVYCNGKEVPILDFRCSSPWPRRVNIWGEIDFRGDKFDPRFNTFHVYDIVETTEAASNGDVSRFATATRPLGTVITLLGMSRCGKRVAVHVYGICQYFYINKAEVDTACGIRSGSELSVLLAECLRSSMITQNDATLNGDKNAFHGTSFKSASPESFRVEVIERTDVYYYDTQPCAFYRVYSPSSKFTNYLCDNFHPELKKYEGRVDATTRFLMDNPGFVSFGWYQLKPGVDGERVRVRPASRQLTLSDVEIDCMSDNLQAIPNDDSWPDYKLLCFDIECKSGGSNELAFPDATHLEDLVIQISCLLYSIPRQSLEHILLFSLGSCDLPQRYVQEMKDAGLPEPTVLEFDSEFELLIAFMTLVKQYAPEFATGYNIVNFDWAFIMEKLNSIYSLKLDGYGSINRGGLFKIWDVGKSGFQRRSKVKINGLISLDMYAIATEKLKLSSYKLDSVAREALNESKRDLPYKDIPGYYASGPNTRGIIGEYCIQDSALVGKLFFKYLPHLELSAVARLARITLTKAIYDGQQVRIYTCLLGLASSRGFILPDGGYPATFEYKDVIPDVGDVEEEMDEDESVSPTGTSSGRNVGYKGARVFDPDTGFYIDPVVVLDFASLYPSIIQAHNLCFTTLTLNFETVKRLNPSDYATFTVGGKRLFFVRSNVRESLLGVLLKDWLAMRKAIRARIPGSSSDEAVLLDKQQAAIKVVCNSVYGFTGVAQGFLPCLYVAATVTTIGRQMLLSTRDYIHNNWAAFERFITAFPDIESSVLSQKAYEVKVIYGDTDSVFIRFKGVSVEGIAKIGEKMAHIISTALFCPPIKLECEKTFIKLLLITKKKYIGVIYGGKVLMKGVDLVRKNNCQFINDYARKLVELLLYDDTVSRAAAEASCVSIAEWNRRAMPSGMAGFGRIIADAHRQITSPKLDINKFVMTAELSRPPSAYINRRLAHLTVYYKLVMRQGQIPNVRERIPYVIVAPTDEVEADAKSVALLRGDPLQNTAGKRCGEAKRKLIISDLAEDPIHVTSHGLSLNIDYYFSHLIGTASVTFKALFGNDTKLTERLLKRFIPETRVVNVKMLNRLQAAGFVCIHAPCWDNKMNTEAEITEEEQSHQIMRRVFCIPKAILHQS

For orientation: IC50 means the concentration needed to halve the response being measured. As a reminder, the EC50 is the concentration that produces a half-maximal response. On to `Cn1nc(C(=O)NCc2ccc(Cl)cc2)c2c1CC(C[C@H]1CCC(=O)N1)C2` (single isomer, unassigned) [Compound 129], for which the concentration for half-maximal inhibition (IC50) was 9.1 nM in assay [1], 154 nM in the assay on VZV [5] (~72 hrs), 74.2 nM in assay [6] and 371 nM in the assay with VZV [8] (~72 hrs). Besides, the 50% effective concentration (EC50) in the assay with HSV-1 Strain F [2] (~72 hrs) turned out to be 1020 nM; with HCMV Strain AD169 (MRC5 cells, ~72 hrs), 1570 nM; in the assay on HSV2 [3] (~72 hrs), 422 nM; in the assay with HSV-1 Strain F [4] (~72 hrs) it was 264 nM; in the assay on HSV2 [7] (~72 hrs) it was 384 nM.

Turning to `CC(C)C(=O)NCCn1nc(C(=O)NCc2ccc(Cl)cc2)c2c1CN(C[C@H]1CCC(=O)N1)C2` [Compound 25], the 50% inhibitory concentration (IC50) in assay [1] worked out at 11.5 nM; in the assay with VZV [5] (setting [13]) it was 484 nM; in assay [6] it was 11.3 nM; in the assay on VZV [8] (setting [15]) it was 29000 nM. The EC50 in the assay with HSV-1 Strain F [2] (setting [9]) was determined as 17400 nM; in the assay on HCMV Strain AD169 (setting [10]), 970 nM; in the assay with HSV2 [3] (setting [11]) it was 99000 nM; in the assay on HSV-1 Strain F [4] (setting [12]), 99000 nM; in the assay on HSV2 [7] (setting [14]) it was 16400 nM.

Take `O=C1CC[C@H](CN2Cc3c(C(=O)NCc4ccc(Cl)cc4)nn(CCn4ccc(Cl)n4)c3C2)N1` [Compound 36]: the IC50 came out at 5.85 nM in assay [1], 102 nM with VZV [5] (setting [13]), 8.94 nM in [6] and 856 nM in the assay on VZV [8] (setting [15]). The EC50 in the assay on HSV-1 Strain F [2] (setting [9]) amounted to 1270 nM; with HCMV Strain AD169 (setting [10]) it was 453 nM; in the assay on HSV2 [3] (setting [11]) it was 2840 nM; in the assay with HSV-1 Strain F [4] (setting [12]), 1190 nM; with HSV2 [7] (setting [14]) it was 960 nM.

On to `Cn1nc(C(=O)NCc2ccc(Cl)c(F)c2)c2c1CN(C[C@H]1CCC(=O)N1)C2` [Compound 60], for which the half-maximal inhibitory concentration (IC50) in [1] turned out to be 112 nM; in the assay with VZV [5] (setting [13]) it was 1470 nM; in assay [6], 143 nM; in the assay on VZV [8] (setting [15]), 5960 nM. For the same compound, the EC50 in the assay with HSV-1 Strain F [2] (setting [9]) amounted to 8350 nM; with HCMV Strain AD169 (setting [10]), 970 nM; in the assay with HSV2 [3] (setting [11]), 5460 nM; in the assay on HSV-1 Strain F [4] (setting [12]), 2850 nM; in the assay on HSV2 [7] (setting [14]), 5570 nM.
